Results as given in patent publication US11999676B2, “Vesicular monoamine transporter-2 ligands and their use in the treatment of psychostimulant abuse” (priority 2016, dated 2024).

Key:
[1] = molecular target: VMAT2 (Rattus norvegicus (Rat), UniProt Q01827); experiment: [3H]Dopamine ([3H]DA) uptake assay, vesicular preparation; type: biochemical; details: [3H]DA uptake, rat; read-out: VMAT2 (rat) Inhibition: Mean Ki ± Standard Deviation
[2] = molecular target: hERG channel (Homo sapiens (Human), UniProt Q12809); experiment: [3H]Dofetilide binding assay, HEK-293 cell membrane preparation; details: [3H]dofetilide, HEK-293 cell membranes; read-out: hERG Binding: Mean Ki ± Standard Deviation
Experimental: [^3H]Dofetilide binding assays were conducted using commercially available HEK-293 cell membranes which stably express the hERG channel. Membranes were suspended in assay buffer (50 mM Tris, 10 mM KCl, 1 mM MgCl2, pH 7.4) prior to the experiment. […] Aliquots of the HEK-293 cell membrane suspension which contained 5 μg membrane protein were added to tubes containing assay buffer, 5 nM [^3H]dofetilide and a range of concentrations of analog (10 nM-100 μM). Nonspecific binding was determined in the presence of amitriptyline (1 mM). Samples were incubated for 1 hr. at 24° C., followed by rapid filtration. […] The affinity for the [^3H]dofetilide binding site on the hERG channel expressed in the HEK-293 cellular membrane was determined from the analog concentration response curves.

[3] = Microsomal stability assay, human liver microsomes; details: for CLint scaled at 0.08 µM / half-life at 0.08 µM: both, human, pooled liver microsomes; for CLint scaled at 0.08 µM: pH 7.4, Microsomal stability assays: Clearance; for half-life at 0.08 µM: pH 7.4, Microsomal stability assays: Half-life
Experimental: Each plate holds triplicate samples of two controls (0.4 mM) and up to 14 compounds (0.08 mM) in rat and human liver microsomes. Aliquots of each well of the plate (175 μl of each well) were transferred from the master plate into 5 assay plates. For 0-hr time point, pre-cooled (4° C.) internal standard (437.5 μL, 2 μM caffeine in methanol) was added to the first plate before the reaction starts. NADPH regenerating system solution A (6.05 ml, Fisher Scientific, #NC9255727) was combined with NADPH regenerating system solution B (1.21 ml, Fisher Scientific, #NC9016235) in potassium phosphate buffer (15.8 ml, 0.1 M, pH 7.4, 37° C.). The resulting NADPH solution (43.8 μl) was added to each well of all the 96-well assay plates and mixed with pipette briefly making the final protein and compound concentrations respectively: 0.5 mg/ml, 0.08 μM (0.4 μM for controls). Plates were sealed, and all plates except the 0-hr plate were incubated at 37° C., shaken at a speed of 60 rpm. A single assay plate was tested at each time point: 0.5 hr, 1 hr, 2 hr, and 4 hr. At each time point, 437.5 μL of pre-cooled internal standard was added each well of the plate to quench the reaction. […] 120 μl supernatant was transferred to a 96-well plate, centrifuged again and analyzed by UPLC-MS (Waters Inc., Milford, MA). The compounds and internal standard were detected by selected ion recording (SIR).
The amount of material was measured as a ratio of peak area to the internal standard and graphed. Using the slope from the initial linear portion of this curve, the degradation rate constant is calculated using equation [1].

[4] = Microsomal stability assay, rat liver microsomes; details: for CLint scaled at 0.08 µM / half-life at 0.08 µM: female, Sprague-Dawley, rat, liver microsomes; for CLint scaled at 0.08 µM: pH 7.4, Microsomal stability assays: Clearance; for half-life at 0.08 µM: pH 7.4, Microsomal stability assays: Half-life

Sequence of hERG channel (Q12809 whole entry): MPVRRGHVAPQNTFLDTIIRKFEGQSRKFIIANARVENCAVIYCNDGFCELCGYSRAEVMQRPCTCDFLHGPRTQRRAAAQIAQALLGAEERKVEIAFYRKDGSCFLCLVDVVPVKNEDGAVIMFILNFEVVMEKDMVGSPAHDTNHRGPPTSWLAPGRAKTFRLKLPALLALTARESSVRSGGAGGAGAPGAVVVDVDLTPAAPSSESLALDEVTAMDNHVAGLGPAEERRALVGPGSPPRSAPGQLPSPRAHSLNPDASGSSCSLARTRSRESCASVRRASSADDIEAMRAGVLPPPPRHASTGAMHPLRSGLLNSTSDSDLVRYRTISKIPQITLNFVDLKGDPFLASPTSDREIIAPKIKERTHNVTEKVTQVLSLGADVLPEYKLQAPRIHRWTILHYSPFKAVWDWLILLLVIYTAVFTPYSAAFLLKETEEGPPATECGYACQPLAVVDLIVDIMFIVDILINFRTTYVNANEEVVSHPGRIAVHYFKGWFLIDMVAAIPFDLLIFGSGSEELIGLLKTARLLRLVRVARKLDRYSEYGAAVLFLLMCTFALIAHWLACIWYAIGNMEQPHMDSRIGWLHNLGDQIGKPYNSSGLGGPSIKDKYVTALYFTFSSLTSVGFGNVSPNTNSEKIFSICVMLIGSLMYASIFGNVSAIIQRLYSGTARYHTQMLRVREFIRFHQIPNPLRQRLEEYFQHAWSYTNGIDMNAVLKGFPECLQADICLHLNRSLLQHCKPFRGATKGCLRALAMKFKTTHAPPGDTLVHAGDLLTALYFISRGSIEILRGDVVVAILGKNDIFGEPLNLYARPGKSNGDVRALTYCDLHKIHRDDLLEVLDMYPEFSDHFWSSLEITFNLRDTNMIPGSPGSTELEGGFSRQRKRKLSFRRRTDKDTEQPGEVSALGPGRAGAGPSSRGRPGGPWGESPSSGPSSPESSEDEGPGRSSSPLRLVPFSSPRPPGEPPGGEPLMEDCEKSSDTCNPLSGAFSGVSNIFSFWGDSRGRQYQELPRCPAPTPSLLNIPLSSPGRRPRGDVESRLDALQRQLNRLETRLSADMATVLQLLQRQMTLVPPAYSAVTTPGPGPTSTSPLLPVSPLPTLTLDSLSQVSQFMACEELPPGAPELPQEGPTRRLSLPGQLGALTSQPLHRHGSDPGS

Structure (SMILES)	Ki [1]	CLint scaled at 0.08 µM [3]	half-life at 0.08 µM [3]	other results
CC(Cc1ccc(C(F)(F)F)cc1)NCCCc1ccc(N)cc1 (stereo not shown) [Compound 54]	0.0618 ± 0.00169 µM	–	–	Ki [2]: 0.908 ± 0.102 µM
CC(Cc1ccc(F)cc1)NCCCc1ccc2[nH]ccc2c1 (stereo not shown) [Compound 56]	–	6.36 L/h/kg	0.2 h	–
COc1ccc(CC(C)NCCCc2ccc(N)cc2)cc1 (stereo not shown) [Compound 57]	0.0689 ± 0.0133 µM	–	–	Ki [2]: 4.25 ± 0.22 µM
COc1ccc(CC(C)NCCCc2ccc([N+](=O)[O-])cc2)cc1 (stereo not shown) [Compound 58]	0.0166 ± 0.00399 µM	–	–	Ki [2]: 0.0423 ± 0.00821 µM
CC(Cc1ccc(F)c(F)c1)NCCCc1ccc([N+](=O)[O-])cc1 (stereo not shown) [Compound 59]	0.0131 ± 0.00287 µM	–	–	Ki [2]: 0.0556 ± 0.0077 µM
CC(Cc1ccc(F)c(F)c1)NCCCc1ccc(N)cc1 (stereo not shown) [Compound 61]	–	0.576 L/h/kg	2.2 h	–
CC(Cc1ccc(Cl)cc1)NCCCc1ccc(N)cc1 (stereo not shown) [Compound 63]	–	0.696 L/h/kg	1.8 h	–
CC(Cc1ccc(Cl)cc1)NCCCc1ccc([N+](=O)[O-])cc1 (stereo not shown) [Compound 64]	0.0164 ± 0.00147 µM	–	–	Ki [2]: 0.0288 ± 0.0137 µM
CC(=O)Nc1ccc(CCCNC(C)Cc2ccc(F)cc2)cc1 (stereo not shown) [Compound 67]	–	< 0.6 L/h/kg	> 4 h	–
CC(Cc1ccc(NC=O)cc1)N(C=O)CCCc1ccc(F)cc1 (stereo not shown) [Compound 74]	0.00882 ± 0.00205 µM	–	–	Ki [2]: 0.831 ± 0.187 µM
FCC(Cc1ccc(Br)cc1)NCCCc1ccc(F)cc1 (stereo not shown) [Compound 86]	–	1.09 L/h/kg	1.1 h	–
CC(Cc1ccc(F)cc1)NCCCc1c[nH]c2ccccc12 (stereo not shown) [Compound 92]	–	6.72 L/h/kg	0.2 h	–
CC(Cc1ccc(F)cc1)NCCCc1ccc(N)cc1 (stereo not shown) [Compound 95]	–	0.774 L/h/kg	1.6 h	–
CC(Cc1ccc(F)c(F)c1)NCCCc1ccncc1 (stereo not shown) [Compound 97]	–	0.714 L/h/kg	1.7 h	–
FCC(Cc1ccccc1)NCCCc1ccccc1 (stereo not shown) [Compound 99]	–	7.14 L/h/kg	0.2 h	–
FCC(Cc1ccc(F)cc1)NCCCc1ccccc1 (stereo not shown) [Compound 100]	0.0512 ± 0.012 µM	–	–	Ki [2]: 7.39 ± 1.36 µM
FCC(Cc1ccccc1)NCCCc1ccc(F)cc1 (stereo not shown) [Compound 102]	–	2.03 L/h/kg	0.6 h	–
Nc1ccc(CCCNC(CF)Cc2ccc(F)cc2)cc1 (stereo not shown) [Compound 107]	0.105 ± 0.000189 µM	–	–	CLint scaled at 0.08 µM [4]: 4.93 L/h/kg; half-life at 0.08 µM [4]: 0.6 h
Nc1ccc(CCCNC(CF)Cc2ccc(F)cc2)cc1 (stereo not shown) [Compound 108]	–	0.576 L/h/kg	2.2 h	–
CC(Cc1ccc([N+](=O)[O-])cc1)NCCCc1ccncc1 (stereo not shown) [Compound 113]	0.157 ± 0.0725 µM	0.378 L/h/kg	3.3 h	–
CC(Cc1ccc([N+](=O)[O-])cc1)NCCCc1ccc(Cl)cc1 (stereo not shown) [Compound 125]	0.00858 ± 0.00371 µM	–	–	Ki [2]: 0.082 ± 0.0127 µM
CC(Cc1ccc(F)cc1)NCCCn1cccn1 (stereo not shown) [Compound 132]	0.709 ± 0.172 µM	–	–	CLint scaled at 0.08 µM [4]: 10.8 L/h/kg; half-life at 0.08 µM [4]: 0.3 h
CC(Cc1ccc(F)cc1)NCCCn1cccn1 (stereo not shown) [Compound 133]	–	< 0.312 L/h/kg	> 4 h	–
CC(Cc1ccc(F)cc1)NCCCn1ccnc1 (stereo not shown) [Compound 134]	0.517 ± 0.112 µM	< 0.312 L/h/kg	> 4 h	–
CC(Cc1ccc(F)cc1)NCCCc1ccc(S(C)(=O)=O)cc1 (stereo not shown) [Compound 138]	0.146 ± 0.0419 µM	< 0.312 L/h/kg	> 4 h	–
CC(C)C(Cc1ccc(F)cc1)NCCCc1ccc(Br)cc1 (stereo not shown) [Compound 140]	0.132 ± 0.0295 µM	0.864 L/h/kg	1.4 h	–
OCC(Cc1ccc(F)cc1)NCCCc1ccc(F)cc1 (stereo not shown) [Compound 147]	0.0301 ± 0.0142 µM	–	–	Ki [2]: 1.15 ± 0.417 µM

Structure (SMILES)	Ki [1]	CLint scaled at 0.08 µM [3]	half-life at 0.08 µM [3]	other results
FCC(Cc1ccc(F)cc1)NCCCc1ccc(Cl)cc1 (stereo not shown) [Compound 151]	–	1.36 L/h/kg	0.9 h	–
FCC(Cc1ccc(F)cc1)NCCCc1ccc(F)cc1 (stereo not shown) [Compound 153]	–	1.23 L/h/kg	1 h	–
CC(Cc1ccc(F)cc1)NCCCc1ccc(N(C)C)cc1 (stereo not shown) [Compound 156]	0.118 ± 0.0258 µM	10.9 L/h/kg	–	Microsomal stability assays: Half-life [3]: 6 min
CCOC(=O)c1ccc(CCCNC(C)Cc2ccc(F)cc2)cc1 (stereo not shown) [Compound 159]	–	13 L/h/kg	–	Microsomal stability assays: Half-life [3]: 6 min
CC(Cc1ccc(F)cc1)NCCCc1ccc([N+](=O)[O-])cc1 (stereo not shown) [Compound 161]	–	< 0.312 L/h/kg	> 4 h	–
CC(Cc1ccc(-c2cncnc2)cc1)NCCCc1ccc(Cl)cc1 (stereo not shown) [Compound 171]	–	4.51 L/h/kg	0.3 h	–
COc1ccc(CCCNC(C)Cc2ccncc2)cc1 (stereo not shown) [Compound 172]	0.186 ± 0.127 µM	2.57 L/h/kg	0.5 h	–
CC(Cc1ccc(Br)cc1)NCCCc1ccncc1 (stereo not shown) [Compound 175]	–	< 0.312 L/h/kg	> 4 h	–
CC(Cc1ccc(F)cc1)NCCCc1ccncc1 (stereo not shown) [Compound 177]	–	< 0.312 L/h/kg	> 4 h	–
CC(Cc1ccncc1)NCCCc1ccc(O)cc1 (stereo not shown) [Compound 179]	–	< 0.312 L/h/kg	> 4 h	–
CC(Cc1ccc(Br)cc1)NCCCc1ccc(I)cc1 (stereo not shown) [Compound 181]	–	< 0.312 L/h/kg	> 4 h	–
CC(Cc1ccc(F)cc1)NCCCc1ccc(I)cc1 (stereo not shown) [Compound 183]	–	< 0.312 L/h/kg	> 4 h	–
CC(Cc1ccc(Br)cc1)NCCCc1ccc(Cl)cc1 (stereo not shown) [Compound 185]	–	< 0.312 L/h/kg	> 4 h	–
CC(Cc1ccc(-c2cccnc2)cc1)NCCCc1ccc(F)cc1 (stereo not shown) [Compound 193]	–	8.64 L/h/kg	–	Microsomal stability assays: Half-life [3]: 6 min
CC(Cc1ccccc1)NCCCc1ccc(C(F)(F)F)cc1 (stereo not shown) [Compound 195]	–	< 0.312 L/h/kg	> 4 h	–
CC(Cc1ccc(-c2cncnc2)cc1)NCCCc1ccc(F)cc1 (stereo not shown) [Compound 197]	–	2.42 L/h/kg	0.5 h	–
COc1ccc(CCC(C)NC(C)Cc2ccccc2)cc1 (stereo not shown) [Compound 198]	0.152 ± 0.0256 µM	–	–	Microsomal stability assays: Half-life [4]: 6 min; CLint scaled at 0.08 µM [4]: 24.8 L/h/kg
COc1ccc(CCC(C)NC(C)Cc2ccccc2)cc1 (stereo not shown) [Compound 199]	–	> 24 L/h/kg	< 0.1 h	–
CC(Cc1ccc(Br)cc1)NCCCc1ccc(F)cc1 (stereo not shown) [Compound 201]	–	< 0.312 L/h/kg	> 4 h	–
CC(Cc1ccccc1)NCCCc1ccc(-c2cncnc2)cc1 (stereo not shown) [Compound 202]	0.119 ± 0.0318 µM	9.3 L/h/kg	–	Microsomal stability assays: Half-life [3]: 6 min
CCC(Cc1ccccc1)NCCCc1ccc(O)cc1 (stereo not shown) [Compound 208]	–	> 24 L/h/kg	< 0.1 h	–
CC(Cc1ccc(C(F)(F)F)cc1)NCCCc1ccc(O)cc1 (stereo not shown) [Compound 209]	0.0171 ± 0.00686 µM	–	–	Ki [2]: 0.252 ± 0.109 µM
CC(Cc1ccccc1)NCCCc1ccc(-c2cccnc2)cc1 (stereo not shown) [Compound 211]	–	> 24 L/h/kg	< 0.1 h	–
CC(Cc1ccccc1)NCCCc1ccc(S)cc1 (stereo not shown) [Compound 217]	–	–	–	Microsomal stability assays: Clearance [4]: 10.2 L/h/kg
CC(Cc1ccccc1)NCCCc1ccc(Br)cc1 (stereo not shown) [Compound 219]	–	–	–	CLint scaled at 0.08 µM [4]: > 24 L/h/kg; half-life at 0.08 µM [4]: < 0.1 h
CC(Cc1ccccc1)NCCCc1ccc(O)cc1 (stereo not shown) [Compound 224]	–	–	–	CLint scaled at 0.08 µM [4]: > 24 L/h/kg; half-life at 0.08 µM [4]: < 0.1 h
